According to US20080194540A1, “Use of a Tricyclic Antidepressant Drug For Promoting Endocytosis” (RINA NETZWERK RNA-TECHNOLOGIEN GMBH, priority 2003, published 2008):

What was measured:
[1] = system: yeast cells (strain RPY10); assay: Yeast system transfection with pFL1 plasmid (cfu relative to negative control); format: cell-based, Saccharomyces cerevisiae; conditions: FIG. 1a, concentration series, ordinate values standardized to chloroquine
Method: A first cell system is a yeast system. The transfection protocol corresponded to that of the document B. Neukamm et al., Biochimica et Biophysica Acta 1572:67-76 (2002). For the measurements, a lab robot (Zinsser, Frankfurt, Germany) was used, and a pipetting protocol was prepared.
Yeast precultures were drawn from cultures of a −70° C. glycerol stock of the strain RPY10 (R. C. Piper et al., Eur J Cell Biol 65:305-318 (1995)) for 72 hours. In the main culture, the cells were drawn over night in YPD medium up to a cell density of 5 to 8·10^7 cells/ml. 12·10^9 cells were harvested and washed twice with the same volume of distilled water. The cells were made competent for the transfection by soaking in distilled water for 30 minutes at 4° C. The competent cells were harvested and resuspended in 10 ml 34% sucrose, adjusted with HCl to pH 4. The suspension was immediately transferred into a sterilized 40 ml glass tube (Zinsser Analytik, Frankfurt, Germany), which were then sealed by an aluminum foil. The tubes were then placed on a shaker on the platform of the lab robot and treated for 40 seconds at 300 rpm. The suspension was automatically distributed into the wells of a 96-well microtiter plate (80 μl each by using stainless steel tips).
The subsequent pipetting protocol was as follows. First, solutions of a substance according to the invention or of a reference substance in different concentrations were added. Exactly 5 minutes later, 10 μl of a solution or suspension of the pFL1 plasmid (0.15 μg/μl) of example 1 were automatically added to the mixture of cells and substance. Some wells were used for a negative control, and only the used solvents and the plasmid were added to the cell suspension, not however the substance. After termination of the pipetting protocol, the plate was covered and placed on the Desyre mixer (Zinsser Analytik). After vortexing for 1 minute at 1,300 rpm, an incubation was performed at 28° C. for 18-20 hours. After the incubation, 110 μl distilled water each were slowly added. Then the cells of each well were transferred to 6-well plates (PS Macroplate, Greiner), filled up with 4 ml WMIXura (Neukamm et al., see above). The wells of the microtiter plate were each washed with 50 μl distilled water, and the washing solution was pipetted on the solid surface of the WMIXura. The macroplates were left dry and incubated for 4 days at 28° C.
Colony forming units (cfu) were then counted in every well. The obtained cfu values were related to the cfu values of the negative control. This ratio is a measure for the transfection effectivity.
For each used substance, the optimum concentration was determined by means of concentration series. For this purpose, concentration series of the respective substances were used. […]

HepG2 cells = assay: Mammal cells system transfection with luciferase plasmid (luciferase activity); format: cell-based; conditions: FIG. 1b, concentration series, ordinate values standardized to chloroquine
Method: HepG2 cells were drawn in Dulbecco's Modified Eagle Medium (DMEM, Gibco BRL, Eggenstein, Germany), supplemented with 10% FBS (fetal bovine serum, Gibco) and 1 μg/ml insulin. On day 1, the cells were removed by means of trypsination, washed and distributed on the wells of a 24-well tissue culture dish, namely 1.5·10^7 cells per well.
24 hours later the transfection tests were performed with the luciferase plasmid from example 1 with different substances at approx. 70 to 80% confluence. The supernatant was removed, and then a mixture (250 μl) containing medium, 12.5 μl dextran (10 mg/ml), 0.5 μl of the plasmid and the respective substance was added to every well. After 2.5 hours incubation at 37° C., the supernatant was removed, and 500 μl complete medium were added to each well. On day 5, the luciferase activity was measured by using the Dual Luciferase® Reporter Assay Kit (Promega, Mannheim, Germany). For this purpose, 48 hours after the transfection, the cell culture supernatants were removed, and the cells were solubilized after addition of 100 μl 1× lysis buffer per well (Promega) for 20 minutes at 20° C. on a slow shaker. 20 μl of the cell-free supernatant were transferred into a 96-well plate (Corning and Costar, Wiesbaden, Germany) and reacted with 100 μl luciferase assay buffer. The luciferase activity was measured with a luminometer (EG&G Berthold MicrolumatPlus).
For each used substance, the optimum concentration was determined by means of concentration series. For this purpose, concentration series of the respective substances were used. For comparing, corresponding measurements were performed with chloroquine. […] The ordinate values are standardized to chloroquine.

Row | SMILES | optimum concentration for promoting transfection, compared to chloroquine [1] | optimum concentration for promoting transfection, compared to chloroquine (HepG2 cells)
1 | Clc1ccc2c(c1)C(N1CCNCC1)=Nc1ccccc1O2 [amoxapine] | smaller | smaller
2 | CN(C)CCCN1c2ccccc2Sc2ccc(Cl)cc21 [chlorpromazine] | smaller | smaller
3 | CN(C)CCC=C1c2ccccc2COc2ccccc21 [doxepine] | similarly high | similarly high
4 | CNCCCC12CCC(c3ccccc31)c1ccccc12 [maprotyline] | smaller | smaller
